Assay results published in patent publication US7780859B2, “Uncoupling agents” (Rhodia Operations, priority 2003, dated 2010).
Where two headings read alike, the source gives them in different places.

Tests used:
[1] = system: municipal activated sludge; assay: Laboratory screening test for growth uncoupling by oxygen consumption pattern analysis (Oxitop BOD system); conditions: test biocides at 1, 2.5, 5, 10 and 25 mg/l; 2,4-dinitrophenol at 20 mg/l; 7 days at 20° C.
From the text: A laboratory screening test was developed to determine the impact of chemical compounds on respiration parameters through an oxygen consumption pattern analysis using a model based on published work by Monod and Pirt^1. Growth uncoupling is characterised by an increase in oxygen consumption during bacterial growth in a synthetic growth medium. 1. Monod J. 1950, Ann Inst Pasteur, “La Technique de Culture Continue, Theorie et Applications”, 79:390-410. Monod J. 1942, “Recherches sur la Croissance des Cultures Bactériennes”. Paris Herman p. 210. Pirt S J. (1965) “The Maintenance Energy of Bacteria In Growing Cultures”. Proceedings of the Royal Society of London B 163, 224-231. “Principles of Water Quality Management”. Ed: W. W. Eckenfelder, Jr. CBI Publishing Company, Inc USA. […]
For the evaluation of proposed water-soluble biocides, the oxygen consumption kinetics are measured and, a process of computer iteration optimises the equation coefficients optimised to fit the oxygen consumption curve.
From the optimised coefficients, the degree of bacterial uncoupling can be calculated. […]
Three conventional water treatment biocides were evaluated as bacterial water-soluble biocides. […]
Based on the liquid sludge, 2,4-dinitrophenol was dosed at 20 mg/l, this being the known level at which significant uncoupling would result. The test biocides were each evaluated at 1, 2.5, 5, 10 and 25 mg/l. […]

[2] = system: sludge microorganisms; conditions: for Growth Yield / Specific Activity / Growth Yield Reduction: flash mixing, 52 days; for Growth Yield Reduction: vs untreated control
From the text: A series of semi-continuous chemostat reactors was constructed to simulate wastewater treatment processes.
The central part of the equipment is the biological chemostat reactor 1. The reactor vessel 2 is made of glass, with an internal volume of 10 liters and is fitted with pH 3 and dissolved oxygen 4 sensors and an air sparge 5. This contains the sludge, which is, essentially, a mass of typical wastewater treatment microorganisms. The reactor operates at an ambient temperature (approximately 20° C.).
Simulated wastewater 13 is contained in a separate vessel 6 and maintained at 4° C. to prevent microbial spoilage. It is transferred into the reactor via a supply line 7 and a peristaltic pump 8.
A recirculating line 9 is provided on the reactor comprising a length of flexible silicone tubing and a peristaltic pump 10. The peristaltic pump extracts the sludge from the reactor into the recirculation line. The candidate water-soluble biocide is introduced into this line 9 through a needle 11, which is fed by a syringe pump 12. Using this system it is possible to achieve “flash mixing” which ensures rapid contact of the water-soluble biocide with the sludge microorganisms. The internal diameter of the recirculating line was 8 mm and the flow velocity was 0.5 meters per second, which gave a contact time, between candidate water-soluble biocide and sludge of 3 seconds before it re-entered the reactor.
Treated effluent 17 is removed from the reactor into a collecting vessel 16 via an outlet line 15.
The reactor was charged with sludge obtained from the Municipal wastewater treatment works at Courly-Lyon, in France. This sludge provided the “seed” to start the process off. The reactor was then filled, to the 5 liter mark, with simulated wastewater, adjusted to approximately pH 7.5, and aeration was commenced.
Each weekday (i.e. 5 times per week), 13.3% of the bioreactor contents were withdrawn to maintain the equilibrium. This ensured a sludge age in the region of 7.5 days.
Also, each weekday, after the adjustments described in the preceding paragraph, candidate water-soluble biocide (as a dilute solution) was injected into the system via the flash mixing recirculating line. The dilute solution was prepared by dissolving 10 grams of sodium hydrogen carbonate in approximately 900 ml of deionised water then adding 5 grams of candidate water-soluble biocide and mixing well. The mixture was then made up to 1 liter with deionised water. The appropriate volume of this dilute solution was injected to achieve the required dose level.
The experiment was conducted for 52 days before decommissioning the system.
Compound X was evaluated in the test. This compound is a 75% aqueous solution of tetrakis(hydroxymethyl)phosphonium sulphate (THPS). Two concentrations were evaluated: 2 and 4 milligrams per liter per day.

[3] = system: sludge microorganisms; conditions: 4 mg/l/day, pre-dilution, 52 days
Protocol: The equipment used in this test sequence was identical to that used for example 1 except that the reactor was not fitted with a recirculating line for flash mixing.
The procedure was identical to that used for example 1 except that the method of dosing Compound X was different. In this case, 5 grams of Compound X was mixed into a solution containing 5 grams of sodium hydrogen carbonate in 1 liter of deionised water. 4.0 ml of this solution was added to 500 ml of clarified wastewater which had been extracted from the bioreactor. The treated clarified wastewater was then returned to the bioreactor and normal operation of the bioreactor was resumed. The final concentration of Compound X in the bioreactor therefore equates to 4 mg per liter. This procedure was conducted daily, 5 times per week.
The experiment was conducted in parallel with example 1, i.e. for 52 days before decommissioning the system.
A Compound X concentration of 4 milligrams per liter per day was used.

Row | Compound | level of uncoupling (percentage uncoupling, FIG. 4) [1] | Growth Yield ([2]; 2 mg/l/day) | Specific Activity ([2]; 2 mg/l/day) | Growth Yield Reduction ([2]; 2 mg/l/day) | Growth Yield ([2]; 4 mg/l/day) | Specific Activity ([2]; 4 mg/l/day) | Growth Yield Reduction ([2]; 4 mg/l/day) | sludge growth ([2]; flash treatment, low dose levels) | concentration of protozoans and other higher organisms in the sludge ([2]; treated sludge relative to untreated) | filamentous bacteria in the sludge ([2]; treated systems vs untreated control) | Growth Yield [3] | Specific Activity [3] | Growth Yield Reduction ([3]; vs untreated control)
1 | CCCCCCCCCCCC[N+](C)(C)C.[Cl-] [C, Dodecyltrimethylammonium chloride] | greater levels of uncoupling at significantly lower dose levels than the conventional water-soluble biocide, 2,4-dinitrophenol | – | – | – | – | – | – | – | – | – | – | – | –
2 | tetrakis(hydroxymethyl)phosphonium sulphate [Compound X] | – | 0.202 g MLSS/g COD | 0.582 g COD/g MLSS.d | 27.7% | 0.167 g MLSS/g COD | 0.772 g COD/g MLSS.d | 37.6% | significantly reducing sludge growth | significantly higher concentration | substantially absent | 0.201 g MLSS/g COD | 0.636 g COD/g MLSS.d | 26.4%
